Results reported in ChEMBL document CHEMBL5291721, “A preclinical secondary pharmacology resource illuminates target-adverse drug reaction associations of marketed drugs” (Nat Commun, 2023).
Each block holds one compound with its values, some of them ahead of it.

Tests used:
[1] = target: T1, Peroxisome proliferator-activated receptor alpha (Homo sapiens, UniProt Q07869); format: functional
T1 sequence (Q07869 whole entry): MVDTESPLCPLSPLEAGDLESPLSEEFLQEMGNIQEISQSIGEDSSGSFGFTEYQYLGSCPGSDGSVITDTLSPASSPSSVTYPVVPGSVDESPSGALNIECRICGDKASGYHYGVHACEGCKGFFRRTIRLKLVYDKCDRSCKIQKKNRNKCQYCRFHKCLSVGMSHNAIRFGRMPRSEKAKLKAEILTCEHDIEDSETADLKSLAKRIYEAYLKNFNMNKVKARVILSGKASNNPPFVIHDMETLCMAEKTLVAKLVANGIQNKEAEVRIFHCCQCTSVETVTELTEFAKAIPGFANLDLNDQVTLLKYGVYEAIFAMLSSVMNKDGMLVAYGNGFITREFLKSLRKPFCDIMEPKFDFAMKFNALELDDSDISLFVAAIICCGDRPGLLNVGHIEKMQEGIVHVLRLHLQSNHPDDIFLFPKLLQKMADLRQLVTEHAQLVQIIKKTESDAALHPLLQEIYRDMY

[2] = target: 5-hydroxytryptamine receptor 2B (Homo sapiens, UniProt P41595)
5-hydroxytryptamine receptor 2B, sequence (P41595 whole entry): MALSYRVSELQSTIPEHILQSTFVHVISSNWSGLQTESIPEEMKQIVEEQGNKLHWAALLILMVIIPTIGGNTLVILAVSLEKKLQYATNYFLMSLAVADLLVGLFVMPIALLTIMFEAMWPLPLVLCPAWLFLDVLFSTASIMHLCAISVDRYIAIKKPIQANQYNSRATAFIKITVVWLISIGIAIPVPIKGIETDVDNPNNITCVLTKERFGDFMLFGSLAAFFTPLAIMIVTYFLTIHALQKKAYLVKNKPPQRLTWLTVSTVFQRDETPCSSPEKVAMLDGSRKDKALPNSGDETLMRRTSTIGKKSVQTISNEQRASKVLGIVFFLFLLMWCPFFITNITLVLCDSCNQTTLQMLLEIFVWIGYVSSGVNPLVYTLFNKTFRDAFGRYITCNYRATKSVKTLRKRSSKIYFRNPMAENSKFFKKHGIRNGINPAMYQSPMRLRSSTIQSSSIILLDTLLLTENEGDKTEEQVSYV

Androgen receptor = target: T2, Androgen receptor (Homo sapiens, UniProt P10275)
T2 sequence (P10275 whole entry): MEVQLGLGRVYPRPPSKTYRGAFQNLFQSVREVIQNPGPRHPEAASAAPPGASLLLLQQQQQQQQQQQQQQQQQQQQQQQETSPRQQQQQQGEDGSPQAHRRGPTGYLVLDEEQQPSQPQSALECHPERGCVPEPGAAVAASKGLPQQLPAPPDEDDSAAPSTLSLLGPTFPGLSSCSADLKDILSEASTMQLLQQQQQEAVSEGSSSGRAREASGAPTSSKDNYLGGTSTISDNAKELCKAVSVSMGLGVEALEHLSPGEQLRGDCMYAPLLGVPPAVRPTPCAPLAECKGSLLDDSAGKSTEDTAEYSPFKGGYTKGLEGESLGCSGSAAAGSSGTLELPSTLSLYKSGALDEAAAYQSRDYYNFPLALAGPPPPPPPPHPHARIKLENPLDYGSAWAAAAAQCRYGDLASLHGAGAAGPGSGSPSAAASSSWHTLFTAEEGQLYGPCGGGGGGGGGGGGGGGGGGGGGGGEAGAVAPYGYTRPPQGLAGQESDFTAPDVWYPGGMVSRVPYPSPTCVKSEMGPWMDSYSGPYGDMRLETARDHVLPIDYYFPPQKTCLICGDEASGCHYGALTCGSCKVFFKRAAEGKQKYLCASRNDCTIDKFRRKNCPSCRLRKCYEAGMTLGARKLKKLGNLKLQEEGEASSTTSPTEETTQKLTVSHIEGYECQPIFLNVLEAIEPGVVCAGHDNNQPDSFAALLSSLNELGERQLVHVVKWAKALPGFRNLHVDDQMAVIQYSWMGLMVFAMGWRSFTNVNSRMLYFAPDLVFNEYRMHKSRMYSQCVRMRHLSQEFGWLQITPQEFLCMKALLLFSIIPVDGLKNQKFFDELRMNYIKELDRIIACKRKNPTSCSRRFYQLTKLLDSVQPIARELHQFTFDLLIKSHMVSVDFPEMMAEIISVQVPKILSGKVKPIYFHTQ

[3] = target: T3, Muscarinic acetylcholine receptor M2 (Homo sapiens, UniProt P08172)
T3 sequence (P08172 whole entry): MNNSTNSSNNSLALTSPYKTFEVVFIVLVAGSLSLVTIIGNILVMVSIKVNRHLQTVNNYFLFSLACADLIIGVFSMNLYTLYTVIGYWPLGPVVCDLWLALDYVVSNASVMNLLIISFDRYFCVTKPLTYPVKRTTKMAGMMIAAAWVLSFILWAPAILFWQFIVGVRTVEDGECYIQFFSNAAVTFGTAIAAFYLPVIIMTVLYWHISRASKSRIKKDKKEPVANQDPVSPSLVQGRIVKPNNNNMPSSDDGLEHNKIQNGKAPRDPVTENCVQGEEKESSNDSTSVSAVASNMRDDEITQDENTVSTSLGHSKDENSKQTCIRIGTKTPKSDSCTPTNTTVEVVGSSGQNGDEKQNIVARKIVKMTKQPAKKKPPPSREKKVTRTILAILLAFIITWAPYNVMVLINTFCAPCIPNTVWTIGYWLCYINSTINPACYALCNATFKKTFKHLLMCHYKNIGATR

Histamine H3 receptor = Histamine H3 receptor (Homo sapiens, UniProt Q9Y5N1)
Histamine H3 receptor, sequence (Q9Y5N1 whole entry): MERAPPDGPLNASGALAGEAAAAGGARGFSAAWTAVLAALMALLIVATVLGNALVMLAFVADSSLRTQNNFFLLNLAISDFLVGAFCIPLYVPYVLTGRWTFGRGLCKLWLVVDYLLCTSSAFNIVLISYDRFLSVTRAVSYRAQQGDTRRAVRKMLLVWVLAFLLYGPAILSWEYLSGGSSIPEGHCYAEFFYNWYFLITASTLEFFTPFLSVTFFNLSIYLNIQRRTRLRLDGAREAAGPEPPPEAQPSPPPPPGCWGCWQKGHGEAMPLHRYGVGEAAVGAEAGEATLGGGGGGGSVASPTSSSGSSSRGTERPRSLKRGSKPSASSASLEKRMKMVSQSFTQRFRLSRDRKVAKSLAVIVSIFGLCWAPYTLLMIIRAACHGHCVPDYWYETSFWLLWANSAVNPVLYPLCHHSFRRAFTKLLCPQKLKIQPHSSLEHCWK

[4] = target: T4, 5-hydroxytryptamine receptor 1A (Homo sapiens, UniProt P08908)
T4 sequence (P08908 whole entry): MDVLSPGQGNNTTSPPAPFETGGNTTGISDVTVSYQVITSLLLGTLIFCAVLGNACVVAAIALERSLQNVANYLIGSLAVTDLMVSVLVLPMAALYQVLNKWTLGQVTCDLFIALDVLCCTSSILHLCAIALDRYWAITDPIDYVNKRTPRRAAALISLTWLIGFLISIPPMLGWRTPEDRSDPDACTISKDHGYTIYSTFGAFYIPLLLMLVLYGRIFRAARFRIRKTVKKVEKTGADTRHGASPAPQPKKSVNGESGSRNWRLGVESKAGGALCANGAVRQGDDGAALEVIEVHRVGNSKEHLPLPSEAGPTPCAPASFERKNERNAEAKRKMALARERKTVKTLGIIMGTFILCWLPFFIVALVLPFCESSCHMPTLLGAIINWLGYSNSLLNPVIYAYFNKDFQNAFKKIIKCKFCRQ

[5] = target: Vascular endothelial growth factor receptor 2 (Homo sapiens, UniProt P35968); format: functional
Vascular endothelial growth factor receptor 2, sequence (P35968 whole entry): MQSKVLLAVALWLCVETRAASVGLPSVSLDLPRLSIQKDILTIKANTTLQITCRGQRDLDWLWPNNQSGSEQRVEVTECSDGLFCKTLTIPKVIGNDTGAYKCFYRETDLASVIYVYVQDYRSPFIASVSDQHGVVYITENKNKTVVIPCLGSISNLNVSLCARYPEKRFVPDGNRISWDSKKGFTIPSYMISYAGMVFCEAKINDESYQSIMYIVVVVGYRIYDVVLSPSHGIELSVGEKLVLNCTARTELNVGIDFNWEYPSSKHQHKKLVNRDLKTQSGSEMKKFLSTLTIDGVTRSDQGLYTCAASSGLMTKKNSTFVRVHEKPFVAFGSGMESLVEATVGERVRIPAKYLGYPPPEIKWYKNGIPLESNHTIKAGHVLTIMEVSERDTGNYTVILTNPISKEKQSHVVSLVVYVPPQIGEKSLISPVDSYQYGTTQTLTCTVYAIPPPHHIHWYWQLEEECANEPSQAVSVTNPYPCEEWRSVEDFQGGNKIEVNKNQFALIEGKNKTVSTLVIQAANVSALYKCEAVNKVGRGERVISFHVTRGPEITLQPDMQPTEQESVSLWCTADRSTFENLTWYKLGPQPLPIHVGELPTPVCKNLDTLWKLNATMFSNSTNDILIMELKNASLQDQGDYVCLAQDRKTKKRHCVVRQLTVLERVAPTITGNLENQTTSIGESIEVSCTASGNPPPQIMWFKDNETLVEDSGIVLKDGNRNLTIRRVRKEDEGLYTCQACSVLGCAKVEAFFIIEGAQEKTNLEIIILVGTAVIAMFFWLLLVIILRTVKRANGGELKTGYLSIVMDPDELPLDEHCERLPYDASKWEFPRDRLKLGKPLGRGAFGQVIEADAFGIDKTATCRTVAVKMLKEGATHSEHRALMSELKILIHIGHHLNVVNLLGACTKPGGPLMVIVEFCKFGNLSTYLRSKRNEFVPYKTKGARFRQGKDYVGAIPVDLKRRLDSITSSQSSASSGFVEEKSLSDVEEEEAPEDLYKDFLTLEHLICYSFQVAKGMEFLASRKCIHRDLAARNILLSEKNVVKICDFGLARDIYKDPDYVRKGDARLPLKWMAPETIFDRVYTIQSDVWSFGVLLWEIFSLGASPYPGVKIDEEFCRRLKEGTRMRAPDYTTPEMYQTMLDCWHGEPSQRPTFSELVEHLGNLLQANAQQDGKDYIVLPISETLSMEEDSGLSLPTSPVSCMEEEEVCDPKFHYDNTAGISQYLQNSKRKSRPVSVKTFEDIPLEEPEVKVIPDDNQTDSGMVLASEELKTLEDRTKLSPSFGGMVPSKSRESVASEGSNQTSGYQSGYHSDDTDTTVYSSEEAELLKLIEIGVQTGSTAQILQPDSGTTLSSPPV

Mu-type opioid receptor = Mu-type opioid receptor (Homo sapiens, UniProt P35372)
Mu-type opioid receptor, sequence (P35372 whole entry): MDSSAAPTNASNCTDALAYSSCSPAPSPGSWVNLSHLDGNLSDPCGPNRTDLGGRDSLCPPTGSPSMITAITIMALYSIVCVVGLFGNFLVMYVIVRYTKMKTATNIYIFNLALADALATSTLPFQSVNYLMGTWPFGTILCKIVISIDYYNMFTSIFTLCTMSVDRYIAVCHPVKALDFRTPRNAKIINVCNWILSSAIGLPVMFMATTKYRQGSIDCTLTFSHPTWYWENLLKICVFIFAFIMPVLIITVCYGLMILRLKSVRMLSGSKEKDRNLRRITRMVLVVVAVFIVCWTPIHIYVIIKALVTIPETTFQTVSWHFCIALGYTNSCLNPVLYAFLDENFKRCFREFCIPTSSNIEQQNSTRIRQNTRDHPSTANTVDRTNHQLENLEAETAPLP

[6] = target: 3',5'-cyclic-AMP phosphodiesterase 4A (Homo sapiens, UniProt P27815); format: functional
3',5'-cyclic-AMP phosphodiesterase 4A, sequence (P27815 whole entry): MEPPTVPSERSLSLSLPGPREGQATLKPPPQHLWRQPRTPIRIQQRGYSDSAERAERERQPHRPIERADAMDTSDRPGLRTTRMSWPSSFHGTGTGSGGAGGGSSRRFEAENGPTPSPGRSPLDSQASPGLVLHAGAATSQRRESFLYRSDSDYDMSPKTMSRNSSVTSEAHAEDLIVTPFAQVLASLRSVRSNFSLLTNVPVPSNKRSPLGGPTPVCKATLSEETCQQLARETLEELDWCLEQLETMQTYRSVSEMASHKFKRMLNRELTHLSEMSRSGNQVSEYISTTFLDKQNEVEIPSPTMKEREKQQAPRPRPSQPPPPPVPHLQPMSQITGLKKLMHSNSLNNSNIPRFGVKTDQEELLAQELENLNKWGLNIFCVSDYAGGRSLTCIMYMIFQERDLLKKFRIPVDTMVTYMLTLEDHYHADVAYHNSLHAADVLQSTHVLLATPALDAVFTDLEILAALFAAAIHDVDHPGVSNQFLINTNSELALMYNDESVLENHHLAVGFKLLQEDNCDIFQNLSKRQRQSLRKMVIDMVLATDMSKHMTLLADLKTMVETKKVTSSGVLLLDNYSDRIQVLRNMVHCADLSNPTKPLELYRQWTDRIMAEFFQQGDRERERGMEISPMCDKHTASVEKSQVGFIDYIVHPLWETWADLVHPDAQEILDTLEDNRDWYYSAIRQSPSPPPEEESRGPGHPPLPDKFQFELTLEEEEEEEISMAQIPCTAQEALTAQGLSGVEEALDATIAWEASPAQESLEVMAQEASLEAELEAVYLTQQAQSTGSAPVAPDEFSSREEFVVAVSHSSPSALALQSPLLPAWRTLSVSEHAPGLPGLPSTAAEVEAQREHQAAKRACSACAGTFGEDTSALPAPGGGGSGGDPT

[7] = target: T5, Prostaglandin G/H synthase 1 (Homo sapiens, UniProt P23219); format: functional
T5 sequence (P23219 whole entry): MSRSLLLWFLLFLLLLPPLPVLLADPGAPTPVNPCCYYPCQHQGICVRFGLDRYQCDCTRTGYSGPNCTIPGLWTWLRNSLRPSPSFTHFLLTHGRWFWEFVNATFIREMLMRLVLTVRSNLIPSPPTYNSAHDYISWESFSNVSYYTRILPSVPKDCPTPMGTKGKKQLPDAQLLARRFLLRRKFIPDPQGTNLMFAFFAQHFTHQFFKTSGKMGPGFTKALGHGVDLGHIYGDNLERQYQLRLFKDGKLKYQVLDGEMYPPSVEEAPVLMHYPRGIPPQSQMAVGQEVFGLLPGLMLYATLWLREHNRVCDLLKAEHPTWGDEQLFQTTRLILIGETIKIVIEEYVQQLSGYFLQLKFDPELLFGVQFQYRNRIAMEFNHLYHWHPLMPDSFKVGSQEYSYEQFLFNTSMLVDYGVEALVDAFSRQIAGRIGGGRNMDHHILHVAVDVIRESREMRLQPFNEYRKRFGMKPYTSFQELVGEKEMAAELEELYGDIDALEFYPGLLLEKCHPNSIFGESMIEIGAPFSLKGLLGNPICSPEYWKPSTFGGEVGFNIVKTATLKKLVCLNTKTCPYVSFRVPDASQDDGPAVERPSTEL

[8] = target: T5, Prostaglandin G/H synthase 1; format: functional; remark: listed apart in the source
Note: assay procedure not described here.

AC50 [1]: > 30 µM
SMILES: CCOC(=O)C(C)(C)Oc1ccc(Cl)cc1 [CLOFIBRATE]

AC50 [2]: 10.6 µM
SMILES: Fc1ccc([C@@H]2CCNC[C@H]2COc2ccc3c(c2)OCO3)cc1 [PAROXETINE]

AC50 (Androgen receptor): > 30 µM
AC50 [3]: 768 nM
AC50 (Histamine H3 receptor): 693 nM
AC50 [4]: 2260 nM
AC50 [5]: > 30 µM
AC50 (Mu-type opioid receptor): 5.86 µM
AC50 [6]: > 10 µM
AC50 [7]: > 30 µM
AC50 [8]: > 30 µM
SMILES: CCN(CC)CCCC(C)Nc1c2ccc(Cl)cc2nc2ccc(OC)cc12 (stereo unspecified) [QUINACRINE]
